Columns and labels:
PC-3 = experiment: NCI DTP cell line screen (SRB), Prostate Cancer; assay type: cell-based
Description: (§1) Screening of compounds 70 and 71 against several cancer cell lines The human tumor cell lines of the cancer screening panel are grown in RPMI 1640 medium containing 5% fetal bovine serum and 2 mM L-glutamine. For a typical screening experiment, cells are inoculated into 96 well microtiter plates in 100 μL at plating densities ranging from 5,000 to 40,000 cells/well depending on the doubling time of individual cell lines. After cell inoculation, the microtiter plates are incubated at 37° C., 5% CO2, 95% air and 100% relative humidity for 24 h prior to addition of experimental drugs.
(§2) After 24 h, two plates of each cell line are fixed in situ with TCA, to represent a measurement of the cell population for each cell line at the time of drug addition (Tz). Experimental drugs are solubilized in dimethyl sulfoxide at 400-fold the desired final maximum test concentration and stored frozen prior to use. At the time of drug addition, an aliquot of frozen concentrate is thawed and diluted to twice the desired final maximum test concentration with complete medium containing 50 μg/ml gentamicin. Additional four, 10-fold or ½ log serial dilutions are made to provide a total of five drug concentrations plus control. Aliquots of 100 μl of these different drug dilutions are added to the appropriate microtiter wells already containing 100 μl of medium, resulting in the required final drug concentrations.
(§3) Following drug addition, the plates are incubated for an additional 48 h at 37° C., 5% CO2, 95% air, and 100% relative humidity. For adherent cells, the assay is terminated by the addition of cold TCA. Cells are fixed in situ by the gentle addition of 50 μl of cold 50% (w/v) TCA (final concentration, 10% TCA) and incubated for 60 minutes at 4° C. The supernatant is discarded, and the plates are washed five times with tap water and air dried. Sulforhodamine B (SRB) solution (100 μl) at 0.4% (w/v) in 1% acetic acid is added to each well, and plates are incubated for 10 minutes at room temperature. After staining, unbound dye is removed by washing five times with 1% acetic acid and the plates are air dried. Bound stain is subsequently solubilized with 10 mM trizma base, and the absorbance is read on an automated plate reader at a wavelength of 515 nm. For suspension cells, the methodology is the same except that the assay is terminated by fixing settled cells at the bottom of the wells by gently adding 50 μl of 80% TCA (final concentration, 16% TCA). Using the seven absorbance measurements [time zero, (Tz), control growth, (C), and test growth in the presence of drug at the five concentration levels (Ti)], the percentage growth is calculated at each of the drug concentrations levels. Percentage growth inhibition is calculated as: [(Ti−Tz)/(C−Tz)]×100 for concentrations for which Ti>/=Tz [(Ti−Tz)/Tz]×100 for concentrations for which Ti<Tz
(§4) Three dose response parameters are calculated for each experimental agent. […] The drug concentration resulting in total growth inhibition (TGI) is calculated from Ti=Tz. […] Values are calculated for each of these three parameters if the level of activity is reached; however, if the effect is not reached or is exceeded, the value for that parameter is expressed as greater or less than the maximum or minimum concentration tested.
(§5) The methods described were used to test compounds 70 and 71 on a panel of sixty cell lines under a screening service provided by the Developmental Therapeutics Program at the National Institutes of Health. Shown in FIG. 1C are 1, RPMI-8226 leukemia cells; 2; NCI-H322M non-small cell lung cancer cells; 3, HT29 colon cancer cells; 4, U251 CNS cancer cells; 5, SK-MEL-28 melanoma cancer cells; 6, SK-OV-3 ovarian cancer cells; 7, RXF 393 renal cancer cells; 8, PC-3 prostate cancer cells; 9, MDA-MB-231 breast cancer cells.

DU-145 = experiment: NCI DTP cell line screen (SRB), Prostate Cancer; assay type: cell-based
Description: as §1, §2, §3, §4, §5

ACHN = experiment: NCI DTP cell line screen (SRB), Renal Cancer; assay type: cell-based, human
Description: as §1, §2, §3, §4, §5

RXF 393 = experiment: NCI DTP cell line screen (SRB), Renal Cancer; assay type: cell-based, human; settings: RXF 393
Description: as §1, §2, §3, §4, §5

UO-31 = experiment: NCI DTP cell line screen (SRB), Renal Cancer; assay type: cell-based, human
Description: as §1, §2, §3, §4, §5

CAKI-1 = experiment: NCI DTP cell line screen (SRB), Renal Cancer; assay type: cell-based, human
Description: as §1, §2, §3, §4, §5

[1] = tested on: sixty human tumor cell lines; experiment: NCI DTP screen, means over sixty human tumor cell lines; assay type: cell-based; settings: two-day treatment
Description: as §1, §2
Following drug addition, the plates are incubated for an additional 48 h at 37° C., 5% CO2, 95% air, and 100% relative humidity. For adherent cells, the assay is terminated by the addition of cold TCA. Cells are fixed in situ by the gentle addition of 50 μl of cold 50% (w/v) TCA (final concentration, 10% TCA) and incubated for 60 minutes at 4° C. […] Bound stain is subsequently solubilized with 10 mM trizma base, and the absorbance is read on an automated plate reader at a wavelength of 515 nm. […] Using the seven absorbance measurements [time zero, (Tz), control growth, (C), and test growth in the presence of drug at the five concentration levels (Ti)], the percentage growth is calculated at each of the drug concentrations levels. Percentage growth inhibition is calculated as: [(Ti−Tz)/(C−Tz)]×100 for concentrations for which Ti>/=Tz [(Ti−Tz)/Tz]×100 for concentrations for which Ti<Tz
Three dose response parameters are calculated for each experimental agent. […] The drug concentration resulting in total growth inhibition (TGI) is calculated from Ti=Tz. […] Values are calculated for each of these three parameters if the level of activity is reached; however, if the effect is not reached or is exceeded, the value for that parameter is expressed as greater or less than the maximum or minimum concentration tested. […]

COX-2 = COX-2 (Homo sapiens, UniProt P35354); experiment: COX-2 inhibitory activity; assay type: biochemical; settings: concentrations up to 50 μM
SK-OV-3 = experiment: NCI DTP cell line screen (SRB), Ovarian Cancer; assay type: cell-based, human
Description: as §1, §2, §3, §4, §5

COX-2, sequence (P35354 18-604): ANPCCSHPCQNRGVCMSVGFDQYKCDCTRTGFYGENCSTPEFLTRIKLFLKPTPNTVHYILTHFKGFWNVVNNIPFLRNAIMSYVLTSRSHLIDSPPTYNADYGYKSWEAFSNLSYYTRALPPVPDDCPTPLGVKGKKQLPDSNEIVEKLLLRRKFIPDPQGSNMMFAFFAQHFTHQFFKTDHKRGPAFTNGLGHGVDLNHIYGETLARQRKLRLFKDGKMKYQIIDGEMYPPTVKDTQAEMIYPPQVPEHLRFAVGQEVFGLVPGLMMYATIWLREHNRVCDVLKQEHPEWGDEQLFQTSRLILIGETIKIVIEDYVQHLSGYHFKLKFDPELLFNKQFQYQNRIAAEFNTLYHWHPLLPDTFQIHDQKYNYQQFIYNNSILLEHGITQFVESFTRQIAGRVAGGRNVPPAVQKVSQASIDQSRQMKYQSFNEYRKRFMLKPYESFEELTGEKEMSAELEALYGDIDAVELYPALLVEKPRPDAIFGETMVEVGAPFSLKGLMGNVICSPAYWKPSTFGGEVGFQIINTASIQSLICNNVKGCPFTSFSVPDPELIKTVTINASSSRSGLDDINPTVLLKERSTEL

SMILES: NCC(=O)Nc1ccc(-n2nc(C(F)(F)F)cc2-c2ccc3c(ccc4ccccc43)c2)cc1 [Compound 70, 2-Amino-N-{4-[5-(2-phenanthrenyl)-3-(trifluoromethyl)-1H-pyrazol-1-yl]-phenyl}-acetamide]
- TGI (PC-3): 2.38E−06
- Percent Growth (PC-3; Log10 Concentration −4.0): −55%
- Percent Growth (PC-3; Log10 Concentration −5.0): −77%
- Percent Growth (PC-3; Log10 Concentration −6.0): 47%
- Percent Growth (PC-3; Log10 Concentration −7.0): 69%
- Percent Growth (PC-3; Log10 Concentration −8.0): 89%
- TGI (DU-145): 3.47E−06
- Percent Growth (DU-145; Log10 Concentration −4.0): −60%
- Percent Growth (DU-145; Log10 Concentration −5.0): −76%
- Percent Growth (DU-145; Log10 Concentration −6.0): 90%
- Percent Growth (DU-145; Log10 Concentration −7.0): 109%
- Percent Growth (DU-145; Log10 Concentration −8.0): 105%
- Percent Growth (ACHN; Log10 Concentration −4.0): −16%
- Percent Growth (ACHN; Log10 Concentration −5.0): −60%
- Percent Growth (ACHN; Log10 Concentration −6.0): 70%
- Percent Growth (ACHN; Log10 Concentration −7.0): 102%
- Percent Growth (ACHN; Log10 Concentration −8.0): 94%
- TGI (ACHN; in M (unit assumed)): 3.45E−06
- Percent Growth (RXF 393; Log10 Concentration −4.0): 10%
- Percent Growth (RXF 393; Log10 Concentration −5.0): −56%
- Percent Growth (RXF 393; Log10 Concentration −6.0): 56%
- Percent Growth (RXF 393; Log10 Concentration −7.0): 75%
- Percent Growth (RXF 393; Log10 Concentration −8.0): 91%
- Percent Growth (UO-31; Log10 Concentration −4.0): −36%
- Percent Growth (UO-31; Log10 Concentration −5.0): −64%
- Percent Growth (UO-31; Log10 Concentration −6.0): 68%
- Percent Growth (UO-31; Log10 Concentration −7.0): 84%
- Percent Growth (UO-31; Log10 Concentration −8.0): 84%
- TGI (UO-31; in M (unit assumed)): 3.29E−06
- Percent Growth (CAKI-1; Log10 Concentration −4.0): −44%
- Percent Growth (CAKI-1; Log10 Concentration −5.0): −75%
- Percent Growth (CAKI-1; Log10 Concentration −6.0): 42%
- Percent Growth (CAKI-1; Log10 Concentration −7.0): 95%
- Percent Growth (CAKI-1; Log10 Concentration −8.0): 87%
- TGI (CAKI-1; in M (unit assumed)): 2.27E−06
- mean TGI among the sixty cell lines [1]: 3.2 µM
- COX-2 inhibitory activity (COX-2): nor was any measurable COX-2 inhibitory activity detected
- TGI (SK-OV-3): 2.96E−06
- Percent Growth (SK-OV-3; Log10 Concentration −4.0): −24%
- Percent Growth (SK-OV-3; Log10 Concentration −5.0): −79%
- Percent Growth (SK-OV-3; Log10 Concentration −6.0): 71%
- Percent Growth (SK-OV-3; Log10 Concentration −7.0): 98%
- Percent Growth (SK-OV-3; Log10 Concentration −8.0): 91%
